{"source": "patent US20250134926A1", "about": "“COMPOSITION FOR ANTI-CANCER TREATMENT COMPRISING IMMUNOGENIC TUMOR-DERIVED EXTRACELLULAR VESICLES USING AN ENDOPLASMIC RETICULUM STRESS INDUCER AND METHOD FOR PRODUCING THE SAME” (priority 2023, published 2025)", "test_system": "melanoma cell line B16F10", "test": "MTT cytotoxicity evaluation of pretreatment substances", "type": "cell-based, mouse", "details": "for viability of tumor cells: B16F10, 24 hours", "procedure": "To conduct the cytotoxicity evaluation of each pretreatment substance (tunicamycin and metformin) on the melanoma cell line B16F10, 3-(4,5-dimethylthiazol-2-yl)-2,5-diphenyltetrzolium bromide (MTT) assay was performed. First, 10^4 cells were seeded in each 96-well plate and cultured for 24 hours. Then, cells in each well were treated with each substance at a given concentration and cultured for an additional 24 hours. After the supernatant was discarded, the cells were treated with an MTT-containing medium at the concentration of 0.5 mg/ml and left for two hours, and the intracellular formazan crystals were dissolved in each well using dimethylsulfoxide. Then, the cytotoxicity was analyzed by measuring the absorbance at 570 nm by using a microplate reader.", "data": [{"substance": "tunicamycin", "values": [{"measurement": "viability of tumor cells", "setting": "concentrations of 0.05 μM or less", "value": "no significant decrease"}, {"measurement": "viability of tumor cells", "setting": "concentrations of 0.1 μM or more", "value": "decrease in cell viability"}, {"measurement": "highest concentration at which no decrease in cell viability was observed", "setting": "B16F10, MTT, 24 hours", "value": 0.05, "unit": "µM"}]}]}
